Experimental data taken from ChEMBL document CHEMBL1201862, “PubChem BioAssay data set” (2004).
Activity calls are given as the source filed them.

Experiments:
[1] = molecular target: Heat shock protein HSP 90-alpha (Homo sapiens, UniProt P07900); type: functional, organism-based
[2] = system: Vero; experiment: cells; type: functional, Chlorocebus sabaeus; details: Chlorocebus sabaeus, Vero
[3] = system: HEK293; experiment: cells; details: Homo sapiens
[4] = system: HEK293; experiment: cells; details: Homo sapiens; remark: listed apart in the source
[5] = system: INS1; experiment: protection of INS-1E cells from cytokine death, dose response, ATP luminescence, dry powder (AID 488844); type: functional, cell-based; details: Rattus norvegicus
[6] = system: INS1; experiment: protection from cytokine-induced mitochondrial depolarization, dose response, cell-based, INS-1E, JC-1 fluorescence ratio, dry powder (AID 488931); type: functional; details: Rattus norvegicus
[7] = molecular target: Trypsin (Sus scrofa, UniProt P00761); experiment: porcine trypsin inhibitors, dose response, selectivity assay for Rce1 protease inhibitor project, biochemical, quenched peptide fluorescence, cherry-pick (AID 488789)
Trypsin, sequence (P00761 whole entry): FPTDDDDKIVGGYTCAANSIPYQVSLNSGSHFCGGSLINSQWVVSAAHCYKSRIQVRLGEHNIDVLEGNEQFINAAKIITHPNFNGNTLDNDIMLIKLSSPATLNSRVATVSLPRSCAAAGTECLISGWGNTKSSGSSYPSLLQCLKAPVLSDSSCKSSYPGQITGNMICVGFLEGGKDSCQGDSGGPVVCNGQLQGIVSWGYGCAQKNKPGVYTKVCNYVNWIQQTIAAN

[8] = molecular target: CAAX prenyl protease 2 (Homo sapiens, UniProt Q9Y256); experiment: human Rce1 protease inhibitors, dose response, biochemical, yeast membranes, quenched-peptide fluorescence, cherry-pick (AID 588849)
CAAX prenyl protease 2, sequence (Q9Y256 whole entry, the tested form may be a part): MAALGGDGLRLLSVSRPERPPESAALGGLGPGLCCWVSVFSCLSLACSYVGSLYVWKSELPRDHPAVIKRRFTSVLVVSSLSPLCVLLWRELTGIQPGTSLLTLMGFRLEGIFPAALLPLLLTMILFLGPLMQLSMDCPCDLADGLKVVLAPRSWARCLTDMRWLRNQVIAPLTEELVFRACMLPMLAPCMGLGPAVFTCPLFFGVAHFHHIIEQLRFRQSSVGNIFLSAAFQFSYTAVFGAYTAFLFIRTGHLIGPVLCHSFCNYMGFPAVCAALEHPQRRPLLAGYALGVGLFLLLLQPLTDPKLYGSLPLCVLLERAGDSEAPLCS

[9] = molecular target: T1, RNA-binding protein pos-1 (Caenorhabditis elegans, UniProt G5EF15); experiment: inhibitors of POS-1/mex-3 RNA binding, dose response, biochemical, fluorescence polarization (AID 1964);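 further: purified POS-1 fused to maltose binding protein made in E. coli; potency of compounds blocking POS-1 binding to fluorescent RNA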
T1 sequence (G5EF15 whole entry): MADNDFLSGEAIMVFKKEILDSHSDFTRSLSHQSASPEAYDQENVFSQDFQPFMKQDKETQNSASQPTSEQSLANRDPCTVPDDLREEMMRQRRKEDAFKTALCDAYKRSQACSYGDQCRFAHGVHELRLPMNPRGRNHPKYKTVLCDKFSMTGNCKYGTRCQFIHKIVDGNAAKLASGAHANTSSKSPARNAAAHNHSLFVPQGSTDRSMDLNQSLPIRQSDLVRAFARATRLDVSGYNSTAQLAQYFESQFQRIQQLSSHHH

[10] = system: Streptococcus sp. 'group A'; experiment: growth inhibition of control SK(-) GAS strain, dose response, counter-screen for streptokinase expression inhibitor project, luminescence, kanamycin, BacTiterGlo, confirmation (AID 1900); type: functional, organism-based
[11] = molecular target: T2, Zinc finger protein mex-5 (Caenorhabditis elegans, UniProt Q9XUB2); experiment: MEX-5/TCR-2 RNA interaction inhibitors, dose response, biochemical, C. elegans, fluorescence polarization (AID 1960)
T2 sequence (Q9XUB2 whole entry): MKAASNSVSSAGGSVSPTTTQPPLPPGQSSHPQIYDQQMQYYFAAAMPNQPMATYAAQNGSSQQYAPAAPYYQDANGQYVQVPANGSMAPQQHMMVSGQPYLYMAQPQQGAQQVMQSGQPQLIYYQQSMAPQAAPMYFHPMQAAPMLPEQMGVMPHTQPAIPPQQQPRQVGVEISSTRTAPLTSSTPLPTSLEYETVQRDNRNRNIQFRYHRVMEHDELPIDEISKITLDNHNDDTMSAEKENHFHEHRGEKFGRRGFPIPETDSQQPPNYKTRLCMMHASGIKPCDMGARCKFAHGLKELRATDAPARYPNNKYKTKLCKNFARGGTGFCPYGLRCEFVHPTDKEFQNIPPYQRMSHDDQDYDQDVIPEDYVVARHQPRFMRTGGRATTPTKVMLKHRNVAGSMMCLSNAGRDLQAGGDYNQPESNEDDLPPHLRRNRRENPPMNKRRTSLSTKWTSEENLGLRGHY

[12] = system: Streptococcus; experiment: Group A Streptococcus viability loss, dose response, counter-screen for streptokinase expression inhibitor project, luminescence, BacTiterGlo (AID 1915); type: functional, organism-based;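 further: potency for reduction of bacterial viability or growth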
[13] = system: Escherichia coli; experiment: microbe, parasite or virus in culture
[14] = system: Escherichia coli; experiment: microbe, parasite or virus in culture; remark: listed apart in the source
[15] = system: HEK293; experiment: cells; type: functional, cell-based; details: Homo sapiens
[16] = molecular target: T3, Nuclear receptor subfamily 0 group B member 1 (Homo sapiens, UniProt P51843); experiment: Luminescence-based cell-based high throughput dose response assay for inhibitors of the orphan nuclear receptor subfamily 0, group B, member 1 (DAX1; NR0B1). [Related pubchem assays (depositor defined):AID504766, AID504790]; type: functional
T3 sequence (P51843 whole entry): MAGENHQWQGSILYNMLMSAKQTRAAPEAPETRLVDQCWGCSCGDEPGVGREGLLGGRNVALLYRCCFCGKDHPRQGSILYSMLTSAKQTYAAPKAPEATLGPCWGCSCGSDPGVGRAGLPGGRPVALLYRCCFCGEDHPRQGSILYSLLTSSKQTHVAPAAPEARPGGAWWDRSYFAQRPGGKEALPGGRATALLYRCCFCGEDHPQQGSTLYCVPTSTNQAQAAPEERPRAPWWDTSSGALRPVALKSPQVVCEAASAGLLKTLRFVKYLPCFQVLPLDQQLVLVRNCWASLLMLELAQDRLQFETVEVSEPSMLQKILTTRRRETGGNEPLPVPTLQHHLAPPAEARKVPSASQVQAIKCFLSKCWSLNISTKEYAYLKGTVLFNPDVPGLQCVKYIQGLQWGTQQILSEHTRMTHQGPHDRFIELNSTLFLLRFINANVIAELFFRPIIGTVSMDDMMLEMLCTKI

CC(=O)Oc1ccccc1C(=O)C=Cc1cccc([N+](=O)[O-])c1
AC50 [1]: 3.01 µM (active) | CC50 [2]: 16.5 µM (active) | EC50 [3]: > 59.6 µM (inactive) | EC50 [4]: > 59.6 µM (inactive)

Cc1ccc(S(=O)(=O)N(C)C[C@@H]2Oc3c(NC(=O)Nc4ccccc4)cccc3C(=O)N([C@@H](C)CO)C[C@H]2C)cc1
AC50 [5]: 27 µM (active) | AC50 [6]: 81.6 µM (active)

OCCCNc1ncnc2sc(-c3ccccc3)cc12
AC50 [7]: 7.39 µM (active) | AC50 [8]: 8.43 µM (active)

CN(C)c1ccc(O)c2c1CC1CC3C(N(C)C)C(=O)C(C(N)=O)=C(O)[C@@]3(O)C(=O)C1=C2O (stereo partly drawn)
EC50 [9]: > 300 µM (not active) | EC50 [10]: 0.078 µM (active) | EC50 [11]: 37 µM (active) | EC50 [12]: 0.184 µM (active) | AC50 [13]: 11.4 µM (active) | AC50 [14]: 1.78 µM (active)

O=C(CCCC(=O)N1CCN(c2ccccc2F)CC1)c1ccccc1
IC50 [15]: > 67.5 µM (inactive) | IC50 [16]: > 67.5 µM (inactive)

CC(=O)Nc1cc(C)c2nc(NC(C)=O)sc2c1
IC50 [15]: > 67.6 µM (inactive) | IC50 [16]: > 67.6 µM (inactive)
